{
  "source": "patent US7674784B2",
  "about": "“Drug and food or drink for improving hyperglycemia” (Morinaga Milk Industry Co., Ltd., priority 2004, dated 2010)",
  "format_in_all_cases": "in vivo",
  "key": {"[1]": {"tested_on": "type-II diabetes model mice (db/db mice)", "assay": "Test Example 2: hemoglobin Alc lowering action compared with a clinical antidiabetic drug, 22 days", "details": "for Hemoglobin Alc levels (%) 23rd day from the administration: oral 1 mL once a day for 22 days, test samples 1 μg/mL, control sample 1 7.5 μg/mL pioglitazone hydrochloride, negative sample = 100", "experimental": "This test was performed in order to compare the hemoglobin Alc lowering action of the compounds of the present invention with that of an antidiabetic drug used in the clinical practice.\nThe same test sample 1 (9,19-cyclolanostan-3-ol) and test sample 2 (24-methylene-9,19-cyclolanostan-3-ol) used in Test Example 1 were used.\nAs type-II diabetes model mice, 6-week old male db/db mice (purchased from Clea Japan, Inc.) were used. These mice were divided into groups, each consisting of 7 animals. Each test sample was dissolved in DMSO, and the concentration was adjusted to 1 μg/mL with physiological saline. The final DMSO concentration was adjusted to 0.2%. […] Further, as a control sample 1, ACTOS® tablets (Takeda Pharmaceutical Co., Ltd.) were ground in a mortar and dissolved in physiological saline so that the concentration of pioglitazone hydrochloride as the active ingredient should become 7.5 μg/mL. The type-II diabetes model mice were orally administered with 1 mL of each test sample solution, control sample 1 solution or negative sample solution once a day everyday with a sonde for 22 consecutive days. On the 23rd day from the start of the administration, hemoglobin Alc levels were measured by using DCA 2000 (Bayer-Sankyo Co., Ltd.)."}, "[2]": {"tested_on": "type-II diabetes model mice (db/db mice)", "assay": "Test Example 4: random and fasting blood glucose levels during repetitive administration, 40 days", "details": "1 mL once a day for 40 days, test samples 1 μg/mL, control sample 15 μg/ml; for changes over time in random blood glucose levels: FIG. 1; for changes over time in fasting blood glucose levels: after 15 hours of fasting, FIG. 2", "experimental": "This test was performed in order to evaluate the hemoglobin Alc lowering action and hyperglycemia improving effect activity of compounds having the cyclolanostane skeleton.\nThe 9,19-cyclolanostan-3-ol and 24-methylene-9,19-cyclolanostan-3-ol produced in Preparation Example 1 mentioned above were used as test samples 1 and 2, respectively. Further, β-sitosterol (Tama Biochemical Co., Ltd.) was used as a control sample.\nIn this test, 6-week old male db/db mice (purchased from Clea Japan, Inc.) were used as type-II diabetes model mice. These mice were divided into groups, each consisting of 7 animals. Each sample was dissolved in DMSO, and the concentrations of 9,19-cyclolanostan-3-ol and […] were adjusted to 1 μg/mL with physiological saline to obtain test sample 1 solution and test sample 2 solution. Further, concentration of β-sitosterol was adjusted to 15 μg/ml in a similar manner to obtain a control sample solution. The final DMSO concentration was adjusted to 0.2%. […] The type-II diabetes model mice were administered with 1 mL of one of the test sample solutions, control sample solution and negative sample solution once a day everyday with a sonde for 40 consecutive days. Fasting blood glucose levels and random blood glucose levels were measured over time by using Antisense II (Bayer-Sankyo Co., Ltd.). The fasting blood glucose levels were measured after 15 hours of fasting."}, "[3]": {"tested_on": "type-II diabetes model mice (db/db mice)", "assay": "Test Example 1: hemoglobin Alc lowering action, repetitive administration for 45 days", "details": "for Hemoglobin Alc levels (%) 43rd day from the administration: 1 mL of 1 μg/mL once a day with a sonde, negative sample = 100; for lowering effect on hemoglobin Alc levels in comparison with negative sample: 43rd day, 1 mL of 1 μg/mL once a day", "experimental": "This test was performed in order to determine the hemoglobin Alc lowering action of a compound having the cyclolanostane skeleton.\nThe 9,19-cyclolanostan-3-ol and 24-methylene-9,19-cyclolanostan-3-ol produced in Preparation Example 1 mentioned above were used as test samples 1 and 2, respectively.\nAs type-II diabetes model mice, 6-week old male db/db mice (purchased from Clea Japan, Inc.) were used in this test. These mice were divided into groups, each consisting of 7 animals. Each test sample was dissolved in DMSO, and the concentration was adjusted to 1 μg/mL with physiological saline. The final DMSO concentration was adjusted to 0.2%. […] The type-II diabetes model mice were administered with 1 mL of either of the test sample solutions or the negative sample solution once a day everyday with a sonde for 45 consecutive days. On the 43rd day of the repetitive administration, hemoglobin Alc levels were measured by using DCA 2000 (Bayer-Sankyo Co., Ltd.)."}, "[4]": {"tested_on": "type-II diabetes model mice (db/db mice)", "assay": "Test Example 3: effective concentration of 24-methylene-9,19-cyclolanostan-3-ol for hemoglobin Alc lowering, 40 days", "details": "for Hemoglobin Alc levels (%) 41st day from the administration: negative sample = 100; for lowering effect for the hemoglobin Alc levels in comparison with negative sample: 41st day", "experimental": "The 24-methylene-9,19-cyclolanostan-3-ol produced in Preparation Example 1 mentioned above was used as a test sample 3.\nIn this test, 6-week old male db/db mice (purchased from Clea Japan, Inc.) were used as type-II diabetes model mice. These mice were divided into groups, each consisting of 7 animals. The test sample 3 was dissolved in DMSO, and the concentration of 24-methylene-9,19-cyclolanostan-3-ol was adjusted to 0.1 or 1 μg/ml with physiological saline. The final DMSO concentration was adjusted to 0.2%. […] The type-II diabetes model mice were administered with 1 mL of the test sample 3 solution of either concentration or negative sample solution once a day everyday with a sonde for 40 consecutive days. On the 41st day from the start of the repetitive administration, hemoglobin Alc levels were measured by using DCA 2000 (Bayer-Sankyo Co., Ltd.)."}},
  "note": "Structures can show the parent of a compound that is named as a salt.",
  "data": [
    {"compound": "CCc1ccc(CCOc2ccc(CC3SC(=O)NC3=O)cc2)nc1", "note": "(stereo not drawn) [Control sample 1, pioglitazone hydrochloride, reference compound]", "values": [
      {"measurement": "decreases in hemoglobin Alc levels in comparison with negative sample", "setting": "[1]; 23rd day from the start of the administration", "result": "about 0.8%"},
      {"measurement": "Hemoglobin Alc levels (%) 23rd day from the administration", "setting": "[1]", "result": "92.1 ± 0.2", "unit": "%"}
    ]},
    {"compound": "CC[C@H](CC[C@@H](C)[C@H]1CC[C@H]2[C@@H]3CC=C4C[C@@H](O)CC[C@]4(C)[C@H]3CC[C@]12C)C(C)C", "note": "[Control sample, β-sitosterol, reference compound]", "values": [
      {"measurement": "changes over time in random blood glucose levels", "setting": "[2]", "result": "rapid increase were observed"},
      {"measurement": "changes over time in fasting blood glucose levels", "setting": "[2]", "result": "rapid increase were observed"}
    ]},
    {"compound": "C=C(CCC(C)C1CCC2(C)C3CCC4C(C)(C)C(O)CCC45CC35CCC12C)C(C)C", "note": "(stereo not drawn) [Test sample 2, 24-methylene-9,19-cyclolanostan-3-ol]", "values": [
      {"measurement": "Hemoglobin Alc levels (%) 43rd day from the administration", "setting": "[3]", "result": "85.6 ± 9.3", "unit": "%"},
      {"measurement": "lowering effect on hemoglobin Alc levels in comparison with negative sample", "setting": "[3]", "result": 14.5, "unit": "%"},
      {"measurement": "Hemoglobin Alc levels (%) 23rd day from the administration", "setting": "[1]", "result": "82.0 ± 7.9", "unit": "%"},
      {"measurement": "changes over time in random blood glucose levels", "setting": "[2]", "result": "effect of suppressing the increases in blood glucose levels was clearly observed"},
      {"measurement": "changes over time in fasting blood glucose levels", "setting": "[2]", "result": "effect of suppressing the increases in blood glucose levels was clearly observed"}
    ]},
    {"compound": "24-methylene-9,19-cyclolanostan-3-ol [Test sample 2]", "values": [
      {"measurement": "Hemoglobin Alc levels (%) 41st day from the administration", "setting": "[4]; 0.1 μg (1 mL of 0.1 μg/ml once a day, 40 days)", "result": "98.1 ± 22.3", "unit": "%"},
      {"measurement": "Hemoglobin Alc levels (%) 41st day from the administration", "setting": "[4]; 1 μg (1 mL of 1 μg/ml once a day, 40 days)", "result": "81.6 ± 14.6", "unit": "%"},
      {"measurement": "lowering effect for the hemoglobin Alc levels in comparison with negative sample", "setting": "[4]; dose of 0.1 μg/day", "result": "about 1.9%"},
      {"measurement": "lowering effect for the hemoglobin Alc levels in comparison with negative sample", "setting": "[4]; dose of 1 μg/day", "result": 18.4, "unit": "%"}
    ]},
    {"compound": "CC(C)CCCC(C)C1CCC2(C)C3CCC4C(C)(C)C(O)CCC45CC35CCC12C", "note": "(stereo not drawn) [Test sample 1, 9,19-cyclolanostan-3-ol]", "values": [
      {"measurement": "Hemoglobin Alc levels (%) 43rd day from the administration", "setting": "[3]", "result": "91.8 ± 19.6", "unit": "%"},
      {"measurement": "lowering effect on hemoglobin Alc levels in comparison with negative sample", "setting": "[3]", "result": 8.2, "unit": "%"},
      {"measurement": "Hemoglobin Alc levels (%) 23rd day from the administration", "setting": "[1]", "result": "85.4 ± 11.2", "unit": "%"},
      {"measurement": "changes over time in random blood glucose levels", "setting": "[2]", "result": "effect of suppressing the increases in blood glucose levels was clearly observed"},
      {"measurement": "changes over time in fasting blood glucose levels", "setting": "[2]", "result": "effect of suppressing the increases in blood glucose levels was clearly observed"}
    ]}
  ]
}
